Test results reported in US20170114128A1, “USE OF TGF-BETA ANTAGONISTS OF TREAT TYPE-2 DIABETES” (ALBERT EINSTEIN COLLEGE OF MEDICINE, INC., priority 2014, published 2017).

Tests used:
normal C57BL/6 mice = experiment: Intra-third ventricle injection of TGF-β1, GTT, ITT, food intake and body weight; format: in vivo
Experimental: Brain TGF-β excess impairs glucose tolerance: To study the metabolic effects of brain TGF-β excess, a pharmacological approach was first used by which TGF-β was delivered into the hypothalamic third ventricle of normal C57BL/6 mice via pre-implanted cannula. To optimize the dosage, different doses of TGF-β1 (0, 0.5, 1.0, and 4.0 ng) were injected, and TGF-β1 concentrations measured in the CSF at various time points post-injection. […] Based on this condition, overnight-fasted mice were given intra-third ventricle injections of TGF-β1 in these doses, one injection at night after food was removed, and the second injection in the following morning at 4 hours prior to glucose tolerance test (GTT). […] In sum, a pharmacological induction of brain TGF-β excess can acutely cause pre-diabetic changes including glucose intolerance and insulin resistance.
Animals. Tgfb1^lox/lox mice, Tgfbr2^lox/lox mice, Tgfb1^+/− mice, GFAP-Cre mice, and T1r4^−/− mice on C57BL/6 were obtained from Jackson (32,56-59) and continued to be maintained on C57BL/6. CMV-lox-stop-lox-Tgfb1 mice(30) obtained from Jackson were backcrossed into C57BL/6. POMC-Cre mice maintained on C57BL/6 were used in our previous research (20,60). All mice were housed in standard, pathogen-free animal facility with 12 h/12 h light and darkness cycles, and adult male mice were used in experiments of this work. Mice were maintained on normal chow since weaning, and for some experiments involving HFD feeding, a HFD (45% kcal fat, Research Diets, Inc.) was used when mice were two to three months old. Food intake and body weight of mice were measured using a laboratory scale. GTT was performed in mice through intraperitoneal (i.p.) injection of glucose at 2 g/kg body weight. ITT was performed in mice through i.p. injection of human recombinant insulin (Nova Nordisk) at the dose of 0.7 U/kg body weight. Blood glucose levels during GTT and ITT were measured with LifeScan® blood glucose monitoring system. All procedures were approved by the Institutional Animal Care and Use Committee of Albert Einstein College of Medicine.
Brain injection. […]

hypothalamic GT1-7 cells = experiment: IκBα mRNA levels in GT1-7 cells after TGF-β1 treatment; format: cell-based; details: GT1-7 cells, TGF-β1 10 ng/ml
Description: TGF-β degrades IκBα mRNA to atypically activate NF-κB: RNA SGs/PBs have the function to degrade mRNAs by targeting the AU-rich element (AUE) at the 3′ untranslated region (UTR) (36-38). […] This information led to the suspicion that TGF-β could work to degrade IκBα mRNA. […] To test if TGF-β induced IκBα mRNA decay is accountable for the glucose metabolism disorder, an experiment was designed to study if the pro-diabetic effect of brain TGF-β excess could be reversed through directly increasing hypothalamic IκBα mRNA. Using an approach which was established previously (23), a lentiviral system was employed to deliver exogenous Iκbα mRNA into the mediobasal hypothalamus of chow-fed C57BL/6 mice, and indeed, this lentivirus-delivered Iκbα mRNA prevented TGF-β1 injection from activating hypothalamic NF-κB (FIG. 5f). Metabolic analysis confirmed that this treatment attenuated the effect of TGF-β1 from impairing insulin-dependent glucose control (FIG. 5g).
Cell culture. GT1-7 cells were cultured as described previously (14). Briefly, GT1-7 cells were maintained in Dulbecco's Modified Eagle's Medium (Invitrogen) with 10% fetal bovine serum (Hyclone) and penicillin/streptomycin (Invitrogen), at 37° C. in a humidified atmosphere containing 5% CO2. Cells were fasted in serum-free medium for an overnight period, and then were subjected to TGF-β1 treatment at the indicated dose and time course.

Myd88 knockout mice = experiment: Third-ventricle TGF-β1 delivery in Myd88 knockout mice; format: in vivo; details: hypothalamic third ventricle; data not shown
Description: To further assess this point, it was asked if the effects of brain TGF-β excess could be impaired by ablation of a signaling component, such as toll-like receptor-4 (TLR4) or myeloid differentiation primary response gene 88 (MyD88), because they employ kinase signaling to induce IκBα phosphorylation and thus NF-κB activation. Using a genetic model, T1r4 knockout (T1r4−/−) mice, TGF-β1 or vehicle was delivered into the hypothalamic third ventricle of these mice and littermate WT mice via pre-implanted cannula. Vehicle-injected T1r4−/− mice and WT mice were both normal in glucose and insulin tolerance tests (FIG. 4a, b). […] Altogether, brain TGF-β excess may use a mechanism that directly targets IκBα rather than upstream kinase signaling to activate hypothalamic NF-κB.

TGF-β1: transforming growth factor-β1 (Sigma), cytokine dissolved in artificial cerebrospinal fluid for third-ventricle injection
glucose intolerance effect, comparison of doses (normal C57BL/6 mice; 4 ng): slightly strongest | sensitivity of insulin in lowing blood glucose (ITT) (normal C57BL/6 mice; 4 ng, third ventricle): significantly dampened | glucose tolerance in GTT (normal C57BL/6 mice; each dose (0.5, 1.0, 4.0 ng), two intra-third ventricle injections, overnight-fasted): led to glucose intolerance | IκBα mRNA levels (hypothalamic GT1-7 cells): notably decreased | effect of lack of Myd88 on glucose or insulin intolerance following TGF-β1 delivery (Myd88 knockout mice): did not lead to a significant reduction
